Patent US20020122768A1, “Stable radiopharmaceutical compositions and methods for preparation thereof” (priority 2000, published 2002)

Tests used:
[1] = Solution stability of ^90Y-A at −78° C., RCP by radio-HPLC; type: physicochemical; details: for RCP (%) change: t = 0 h to 72 h
Method: The integrity of a radiopharmaceutical is measured by the radiochemical purity (RCP) of the radiolabeled compound using ITLC or more preferably HPLC. The advantage of using HPLC is that radio-impurities caused by radiolytic degradation can be separated from the radiopharmaceutical under optimized chromatographic conditions. […] The radiopharmaceutical compositions of this invention are effective in maintaining the long-term stability of samples that have been frozen, thawed, and re-tested periodically for 7 days.
The initial RCP of a radiopharmaceutical is largely dependent on radiolabeling conditions such as pH, heating temperature and time. Once a radiopharmaceutical is prepared in high yield, the stability of the radiopharmaceutical composition is measured by the` RCP change of the radiopharmaceutical over a certain period of time. For comparison purposes, sodium gentisate or sodium ascorbate was often used as the reference since they have been used in various radiopharmaceutical formulations.
Analytical Methods. HPLC method 1 used a HP-1100 HPLC system with a UV/visible detector (λ=220 nm), an IN-US radio-detector, and a Zorbax C18 column (4.6 mm×250 mm, 80 Å pore size). The flow rate was 1 mL/min with the mobile phase being isocratic from 0 to 18 min using 87% solvent A (0.025 M ammonium acetate buffer, pH 6.8) and 13% solvent B (acetonitrile), followed by an isocratic wash using 40% of solvent A and 60% solvent B from 19 to 25 min.
The ITLC method used Gelman Sciences silica-gel ITLC paper strips and 1:1 mixture of acetone and saline as eluant. By this method, the radiolabeled compounds migrate to the solvent front while [^90Y]/^177Lu]colloid and [^90Y]/^177Lu]acetate remain at the origin.
^90Y-A was prepared using the procedure described in example 4. The resulting solution was the kept in a dry-ice box (−78° C.) for 3 days. Samples were analyzed at t=0, 24, 48, and 72 h.
To a lead-shielded clean 5 mL vial containing 100 μg of COMPOUND A and 2 mg of 3,4,5-trihydroxybenzoic acid (3,4,5-THBA) dissolved in 0.5 mL of 0.5 M ammonium acetate buffer (pH=8.0) was added 20 μL Of ^90YCl3 solution (˜20 mCi) in 0.05 N HCl. The reaction mixture was heated at 100° C. for 5 min. After cooling to room temperature, 0.5 mL of 3,4,5-THBA solution (20 mg/mL) in 0.5 M ammonium acetate buffer (pH=8.0) was added to the solution above. A sample of the resulting mixture was then diluted 20-fold with GA solution (10 mg/mL, pH=7.4), and analyzed by HPLC (Method 1, injection volume=1 μL) and ITLC. […] The resulting mixture was kept at −78° C. for 3 days. Samples were analyzed at t=0, 1, 2, and 3 days.
(§1) Synthesis of ^90Y-A was carried out according to the procedure described in example 12. After cooling to room temperature, 0.5 mL of 2,3,4-THBA solution (20 mg/mL) in 0.5 M ammonium acetate buffer (pH=8.0) was added to the solution containing ^90Y-A. The resulting mixture was kept at -78 °C for 3 days. Samples were analyzed at t=0, 1, 2, and 3 days.
as §1, with “DSA” for “2,3,4-THBA”, “−78° C.” for “-78 °C”
as §1, with “mL of HABA solution (20” for “mL of 2,3,4-THBA solution (20”, “kept at −78° C. for 3” for “kept at -78 °C for 3”, “3 days. […]” for “3 days.”
To a lead-shielded clean 30 mL vial containing 1000 μg of COMPOUND A and 100 mg of sodium gentisate (GA) dissolved in 5 mL of 0.5 M ammonium acetate buffer (pH=7.5) was added ˜250 μL of ^90YCl3 solution (˜200 mCi) in 0.05 N HCl. The reaction mixture was heated at 100° C. for 15 min. […]

[2] = Solution stability of ^90Y-A at room temperature, RCP by radio-HPLC; type: physicochemical; details: for RCP (%) change: ^90Y-A, t = 0 h to last time point
Method: The advantage of using HPLC is that radio-impurities caused by radiolytic degradation can be separated from the radiopharmaceutical under optimized chromatographic conditions.
The initial RCP of a radiopharmaceutical is largely dependent on radiolabeling conditions such as pH, heating temperature and time. Once a radiopharmaceutical is prepared in high yield, the stability of the radiopharmaceutical composition is measured by the` RCP change of the radiopharmaceutical over a certain period of time.
Analytical Methods. HPLC method 1 used a HP-1100 HPLC system with a UV/visible detector (λ=220 nm), an IN-US radio-detector, and a Zorbax C18 column (4.6 mm×250 mm, 80 Å pore size).
The ITLC method used Gelman Sciences silica-gel ITLC paper strips and 1:1 mixture of acetone and saline as eluant.
(§2) The reaction mixture was heated at 100° C. for 10 min. A sample of the resulting solution was first diluted 20-fold with 2 mM DTPA solution (pH=5), and was then analyzed by HPLC (Method 1, injection volume=1-2 μL) and ITLC. […] The resulting solution was kept at room temperature for 6 days.
as §2, §2
The reaction mixture was heated at 100° C. for 10 min. A sample of the resulting solution was first diluted 20-fold with 2 mM DTPA solution (pH=5), and was then analyzed by HPLC (Method 1, injection volume 1-2 μL) and ITLC. […] The resulting solution was kept at room temperature for 7 days.
(§3) The reaction mixture was heated at 100° C. for 10 min. A sample of the resulting solution was first diluted 20-fold with 2 mM DTPA solution (pH=5), and was then analyzed by HPLC (Method 1, injection volume=1-2 μL) and ITLC. […] The resulting solution was kept at room temperature for 7 days.
as §3, §3

[3] = ^90Y-A prepared using 2 mg 3,4,5-THBA, second stabilizer (0.5 mL of 20 mg/mL) added after radiolabeling, −78° C.
[4] = ^90Y-A prepared using 2 mg 3,4,5-THBA, second stabilizer added after radiolabeling, −78° C.
[5] = ^90Y-A, 10 mg stabilizer, dry-ice box (−78° C.)
[6] = ^90Y-A, 10 mg stabilizer, −78° C.
[7] = ^90Y-A (~20 mCi), 10 mg stabilizer, room temperature
[8] = 10 mg stabilizer, room temperature
[9] = ^90Y-A (~20 mCi), 2 mg stabilizer, room temperature

| RCP (%) t = 0 h [1, 3] [%] | RCP (%) t = 24 h [1, 3] [%] | RCP (%) t = 48 h [1, 3] [%] | RCP (%) t = 72 h [1, 3] [%] | RCP (%) change [1, 4] [%] | RCP (%) t = 0 h [1, 5] [%] | RCP (%) t = 24 h [1, 5] [%] | RCP (%) t = 48 h [1, 5] [%] | RCP (%) t = 72 h [1, 5] [%] | RCP (%) change [1, 6] [%] | RCP (%) t = 0 h [2, 7] [%] | RCP (%) t = 24 h [2, 7] [%] | RCP (%) t = 72 h [2, 7] [%] | RCP (%) t = 148 h [2, 7] [%] | RCP (%) change [2, 8] [%] | Compound | also measured |
| --- | --- | --- | --- | --- | --- | --- | --- | --- | --- | --- | --- | --- | --- | --- | --- | --- |
| 98.5 | 98.9 | 96.7 | 96.7 | 1.8 | 94.4 | 94.0 | 94.1 | 94.2 | 0.2 | 92.2 | 89.3 | 82.8 | 80.5 | 11.7 | 2,4-disulfonatobenzeneamine [DSA] |  |
| 98.1 | 99.2 | 99.0 | 98.2 | 0 |  |  |  |  |  |  |  |  |  |  | O=C(O)c1ccc(O)c(O)c1O [2,3,4-THBA, 2,3,4-trihydroxybenzoic acid] |  |
| 97.5 | 98.4 | 98.3 | 96.6 | 0.9 | 93.3 | 92.4 | 93.5 | 93.5 | 0.2 | 93.3 | 92.4 | 88 | 79.5 | 13.8 | O=C(O)c1cc(O)c(O)c(O)c1 [3,4,5-THBA, 3,4,5-trihydroxybenzoic acid] | RCP (%) t = 0 h [2, 9]: 95.3%; RCP (%) t = 24 h [2, 9]: 89.3%; RCP (%) t = 48 h [2, 9]: 80.6%; RCP (%) t = 120 h [2, 9]: 74.3%; RCP (%) t = 144 h [2, 9]: 73.4%; stabilization compared with GA ([2]; ^90Y-A at room temperature, 2 mg stabilizer): better stabilizers than GA |
